Data: patent US20260232767A1, “INTERLEUKIN-23 RECEPTOR ANTAGONIST PEPTIDES FOR USE IN THE TREATMENT OF PSORIASIS” (Janssen Pharmaceutica NV, priority 2023, published 2026)

System: subjects with moderate-to-severe plaque psoriasis
Assay: Safety, adverse events, Example 2 through Week 56
Format: in vivo, human
Description: The LTE safety analysis was based on randomized participants in Example who entered the present long-term extension study and received at least one dose of study intervention (including a partial dose) during the study period.

[1] = 25 mg QD, Week 16 through Week 56

## CC(=O)NCCCC[C@@H]1NC(=O)[C@H](Cc2c[nH]c3c(C)cccc23)NC(=O)[C@H]([C@@H](C)O)NC(=O)[C@H](CC(N)=O)NC(=O)[C@@H](NC(C)=O)C(C)(C)SSC(C)(C)[C@@H](C(=O)N[C@@H](Cc2ccc(OCCN)cc2)C(=O)N[C@@H](Cc2ccc3ccccc3c2)C(=O)NC2(C(=O)N[C@@H](CCC(=O)O)C(=O)N[C@@H](CC(N)=O)C(=O)N[C@@H](Cc3cccnc3)C(=O)N(C)CC(N)=O)CCOCC2)NC1=O [IL-23 receptor antagonist peptide, Ac-[Pen]*-N-T-[W(7-Me)]-[Lys(Ac)]-[Pen]*-Phe[4-(2-aminoethoxy)]-[2-Nal]-[THP]-E-N-[3-Pal]-Sarc-NH2 (*[Pen]-[Pen]* formdisulfidebond)]
25 mg BID, through Week 56
  Ketonuria: number of subjects: 0
  Leukocyturia: number of subjects: 0
  Leukopenia: number of subjects: 0
  Libido decreased: number of subjects: 0
  Liver disorder: number of subjects: 0
  Lymphopenia: number of subjects: 0
  Menopause: number of subjects: 0
  Metabolism and nutrition disorders: % of subjects: (7.3%)
  Metabolism and nutrition disorders: number of subjects: 3
  Neoplasms benign, malignant and unspecified (incl cysts and polyps): % of subjects: (2.4%)
  Neoplasms benign, malignant and unspecified (incl cysts and polyps): number of subjects: 1
  Nephrolithiasis: number of subjects: 0
  Neutropenia: number of subjects: 0
  Night sweats: number of subjects: 0
  Non-cardiac chest pain: number of subjects: 0
  Ocular cyst: number of subjects: 0
  Oedema peripheral: number of subjects: 0
  Oropharyngeal pain: number of subjects: 0
  Procedural pain: number of subjects: 0
  Productive cough: number of subjects: 0
  Proteinuria: number of subjects: 0
  Pruritus: number of subjects: 0
  Psoriasis: % of subjects: (2.4%)
  Psoriasis: number of subjects: 1
  Psychiatric disorders: % of subjects: (2.4%)
  Psychiatric disorders: number of subjects: 1
  Pyrexia: number of subjects: 0
  Rash pruritic: number of subjects: 0
  Renal and urinary disorders: number of subjects: 0
  Renal mass: number of subjects: 0
  Respiratory, thoracic and mediastinal disorders: % of subjects: (2.4%)
  Respiratory, thoracic and mediastinal disorders: number of subjects: 1
  Retinal vein occlusion: number of subjects: 0
  Rhinorrhoea: number of subjects: 0
  Seasonal allergy: number of subjects: 0
  Skin and subcutaneous tissue disorders: % of subjects: (4.9%)
  Skin and subcutaneous tissue disorders: number of subjects: 2
  Skin laceration: number of subjects: 0
  Skin papilloma: number of subjects: 0
  Social circumstances: number of subjects: 0
  Steatohepatitis: number of subjects: 0
  Subjects with AE leading to discontinuation: Abdominal discomfort: 0
  Subjects with AE leading to discontinuation: Abdominal pain: 0
  Subjects with AE leading to discontinuation: Alanine aminotransferase increased: 0
  Subjects with AE leading to discontinuation: Aspartate aminotransferase increased: 0
  Subjects with AE leading to discontinuation: Ear and labyrinth disorders: 0
  Subjects with AE leading to discontinuation: Gamma-glutamyltransferase increased: 0
  Subjects with AE leading to discontinuation: Investigations: 0
  Subjects with AE leading to discontinuation: Nausea: 0
  Subjects with AE leading to discontinuation: Suicide attempt: 0
  Subjects with AE leading to discontinuation: Transaminases increased: 0
  Subjects with AE leading to discontinuation: Vertigo: 0
  Subjects with AE leading to discontinuation: Vomiting: 0
  Subjects with AE leading to discontinuation: Weight increased: 0
  Subjects with COVID-19 associated AE: SARS-CoV-2 test positive: 0
  Subjects with treatment-emergent AE: Arthralgia: 0
  Subjects with treatment-emergent AE: Cough: 0
  Subjects with treatment-emergent AE: Nasopharyngitis: 8
  Subjects with treatment-emergent serious AE: COVID-19: 0
  Subjects with treatment-emergent serious AE: Cerebrovascular accident: 0
  Subjects with treatment-emergent serious AE: Coronary artery disease: 0
  Subjects with treatment-emergent serious AE: Diverticulitis: 0
  Subjects with treatment-emergent serious AE: Foot deformity: 0
  Subjects with treatment-emergent serious AE: General disorders and administration site conditions: 0
  Subjects with treatment-emergent serious AE: Infected cyst: 0
  Subjects with treatment-emergent serious AE: Infections and infestations: 0
  Subjects with treatment-emergent serious AE: Intervertebral disc protrusion: 0
  Subjects with treatment-emergent serious AE: Musculoskeletal and connective tissue disorders: 0
  Subjects with treatment-emergent serious AE: Neoplasms benign, malignant and unspecified (incl cysts and polyps): 0
  Subjects with treatment-emergent serious AE: Nervous system disorders: 0
  Subjects with treatment-emergent serious AE: Non-cardiac chest pain: 0
  Subjects with treatment-emergent serious AE: Psychiatric disorders: 0
  Subjects with treatment-emergent serious AE: Suicide attempt: 0
  Subjects with treatment-emergent serious AE: Uterine leiomyoma: 0
  Suicide attempt: number of subjects: 0
  Sunburn: % of subjects: (2.4%)
  Sunburn: number of subjects: 1
  Thrombocytopenia: number of subjects: 0
  Thrombocytosis: number of subjects: 0
  Tonsillar hypertrophy: % of subjects: (2.4%)
  Tonsillar hypertrophy: number of subjects: 1
  Tooth fracture: number of subjects: 0
  Type 2 diabetes mellitus: number of subjects: 0
  Urinary tract disorder: number of subjects: 0
  Uterine leiomyoma: number of subjects: 0
  Vascular disorders: % of subjects: (4.9%)
  Vascular disorders: number of subjects: 2
  Ventricular dysfunction: % of subjects: (2.4%)
  Ventricular dysfunction: number of subjects: 1
  Vertigo: number of subjects: 0
  Vitamin D deficiency: % of subjects: (2.4%)
  Vitamin D deficiency: number of subjects: 1
[1]
  Number of subjects with treatment-emergent AE: Cholelithiasis: 0
  Number of subjects with treatment-emergent AE: Ear and labyrinth disorders: 1
  Number of subjects with treatment-emergent AE: Endocrine disorders: 0
  Number of subjects with treatment-emergent AE: Eye disorders: 0
  Number of subjects with treatment-emergent AE: Eyelid skin dryness: 0
  Number of subjects with treatment-emergent AE: Goiter: 0
  Number of subjects with treatment-emergent AE: Hepatobiliary disorders: 0
  Number of subjects with treatment-emergent AE: Hypertransaminasemia: 0
  Number of subjects with treatment-emergent AE: Immune system disorders: 0
  Number of subjects with treatment-emergent AE: Insomnia: 0
  Number of subjects with treatment-emergent AE: Ocular cyst: 0
  Number of subjects with treatment-emergent AE: Psychiatric disorders: 0
  Number of subjects with treatment-emergent AE: Retinal vein occlusion: 0
  Number of subjects with treatment-emergent AE: Seasonal allergy: 0
  Number of subjects with treatment-emergent AE: Vertigo: 1
  Subjects with treatment-emergent AE: Ear and labyrinth disorders (%): (2.9%)
  Subjects with treatment-emergent AE: Vertigo (%): (2.9%)
25 mg QD, through Week 56
  Acrochordon: number of subjects: 0
  Actinic keratosis: number of subjects: 0
  Alopecia: % of subjects: (2.3%)
  Alopecia: number of subjects: 1
  Asthenia: number of subjects: 0
  Asthma: number of subjects: 0
  Atrioventricular block first degree: number of subjects: 0
  Basal cell carcinoma: number of subjects: 0
  Blood and lymphatic system disorders: % of subjects: (2.3%)
  Blood and lymphatic system disorders: number of subjects: 1
  Bronchitis chronic: number of subjects: 0
  Bundle branch block right: number of subjects: 0
